What was measured:
[1] = tested on: MAO; assay: Inhibition of MAO - In vitro (14C p-tyramine substrate, partially purified rat brain mitochondria); assay type: biochemical; details: tested as hydrochloride salt, read-out: IC50 (MAO inhibitory activity - In vitro)
Excerpt: (A) The ability of a compound of Formula I or II to inhibit MAO can be determined in vitro by the method of A. Christmas et al, Br. J. Pharmacol. 45, 490 (1972) in partially purified mitochondria from rat brain using ^14 C p-tyramine as the substrate.

[2] = tested on: MAO-B versus MAO-A; assay: Selectivity of MAO inhibitors - In vitro (14C 5-hydroxytryptamine for MAO-A, 14C phenethylamine for MAO-B); assay type: biochemical, rat; details: for Selectivity (ratio of inhibitory activity against MAO-B versus MAO-A): in vitro, rat brain mitochondria
Protocol: Mitochondria are prepared from rat brain by homogenation in phosphate buffer (0.1 M, pH 7.2) followed by differential centrifugation. The mitochondria are suspended in the same buffer, the test compound is added at the desired concentration, and the system is incubated. […] Christmas, et al, supra).
Selectivity is expressed as the ratio of the inhibitory activity against MAO-B versus the inhibitory activity against MAO-A.

[3] = tested on: MAO; assay: Inhibition of MAO - Ex vivo, rat (14C p-tyramine substrate); assay type: in vivo; details: for % Inhibition of MAO - Duodenum / % Inhibition of MAO - Heart / % Inhibition of MAO - Liver: 0.1 mg/kg iv; for % Inhibition of MAO - Brain: 18 hr
Protocol: (§1) The ability of a compound of Formula I or II to inhibit MAO can be determined ex vivo by the following procedure:
The test compound is administered intraperitoneally (ip), intravenously (iv), or orally (po) to rats or mice and the animals are killed at various times after treatment. […] MAO activity is determined in the homogenates using ^14 C p-tyramine, as the substrate. […] Selectivity can be determined by repeating the above-described test using either ^14 C 5-hydroxytryptamine (for MAO-A) or ^14 C phenethylamine (for MAO-B) as the substrate for determining the % inhibition

[4] = tested on: heart rate response to p-tyramine; assay: Cheese effect: potentiation of heart-rate response to p-tyramine in rats; details: rat
Protocol: The following test procedure can be employed to assess the potential of a compound of Formula I or II for producing the "cheese effect":
Rats are administered an intravenous injection of the test compound at various dosage levels, and 30 minutes later the rats are challenged with several intravenous or intraduodenal dodes of p-tyramine. The heart rate response is measured.

[5] = tested on: MAO-A and MAO-B; details: literature; cited from earlier work
[6] = tested on: MAO; assay: Inhibition of MAO - Ex vivo, mouse (14C p-tyramine substrate); assay type: in vivo; details: 24 hr
Protocol: as §1
The test compound is administered intraperitoneally (ip), intravenously (iv), or orally (po) to rats or mice and the animals are killed at various times after treatment. The brain, heart, liver, or duodenum is removed and either a crude homogenate or a mitochondrial fraction, described in Example 28, Part A, is prepared. MAO activity is determined in the homogenates using ^14 C p-tyramine, as the substrate. Table III gives the results of the testing of certain compounds according to the above-described procedure. Selectivity can be determined by repeating the above-described test using either ^14 C 5-hydroxytryptamine (for MAO-A) or ^14 C phenethylamine (for MAO-B) as the substrate for determining the % inhibition

[7] = tested on: MAO; assay: Inhibition of MAO - In vivo: change in levels of endogenous MAO substrates and metabolites in mouse brain; parameters: species or system mice; details: 2 hr
Protocol: The ability of a compound of Formula I or II to inhibit MAO can be determined in vivo in mice according to the following procedure, wherein changes in concentration of the endogenous MAO substrates and the metabolites thereof are assayed.
Mice are given an intraperitoneal injection of the test compound and 2 hours or 16 hours later the animals are killed. The levels of dopamine, dihydroxyphenylacetic acid (DOPAC), 5-hydroxytryptamine (5-HT), and 5-hydroxyindole-3-acetic acid (5-HIAA) in brain homogenates are determined by the method of J. Wagner et al, J. Chromatog. 164, 41 (1979) and P. Bey et al, Br. J. Pharmac., 70, 571 (1980).

NC/C(=C\F)c1ccccc1 [(Z)-2-phenyl-3-fluoroallylamine, (Z)-2-Phenyl-3-fluoroallylamine]
IC50 [1]: 1000 nM

COc1ccccc1/C(=C\F)CN [(E)-2-(2'-Methoxy)phenyl-3-fluoroallylamine]
IC50 [1]: 2500 nM

CCNC/C(=C/F)c1ccc(OC)c(OC)c1 [(E)-N-ethyl 2-(3',4'-dimethoxy)phenyl-3-fluoroallylamine]
IC50 [1]: 70000 nM

COc1ccc(C/C(=C\F)CN)cc1 [(E)-2-(4'-Methoxy)benzyl-3-fluoroallylamine]
IC50 [1]: 3000 nM | selectivity for MAO-B as compared to MAO-A (in words) [2]: marked selectivity for MAO-B as compared to MAO-A | Selectivity (ratio of inhibitory activity against MAO-B versus MAO-A) [2]: 500

COc1ccc(/C(=C\F)CN)cc1 [(E)-2-(4'-Methoxy)phenyl-3-fluoroallyl amine]
% Inhibition of MAO - Duodenum ([3]; 2 hr): 80% | % Inhibition of MAO - Heart ([3]; 2 hr): 50% | % Inhibition of MAO - Liver ([3]; 2 hr): 30% | % Inhibition of MAO - Brain ([3]; 1.0 mg/kg po): 86% | % Inhibition of MAO - Brain ([3]; 5.0 mg/kg po): 97% | Potentiation of heart-rate response to p-tyramine ([4]; dose 0.1 (iv), p-tyramine i.d.): 2.0 fold | Potentiation of heart-rate response to p-tyramine ([4]; dose 0.1 (iv), p-tyramine i.v.): 1.4 fold | Potentiation of heart-rate response to p-tyramine ([4]; dose 1.0 (iv), p-tyramine i.d.): 4.6 fold | Potentiation of heart-rate response to p-tyramine ([4]; dose 1.0 (iv), p-tyramine i.v.): 5.2 fold | risk of producing the cheese effect (in words) ([4]; in vivo): significantly decreased risk

NNCCc1ccccc1 [phenelzine]
preferential inhibition of MAO-A or MAO-B (in words) [5]: not preferential in their action upon MAO

NC/C(=C/F)c1ccccc1 [(E)-2-phenyl-3-fluoroallylamine, (E)-2-Phenyl-3-fluoroallylamine]
IC50 [1]: 700 nM | Selectivity (ratio of inhibitory activity against MAO-B versus MAO-A) [2]: 10 | % Inhibition of MAO - Duodenum ([3]; 24 hr): 67% | % Inhibition of MAO - Heart ([3]; 24 hr): 85% | % Inhibition of MAO - Liver ([3]; 24 hr): 48% | % Inhibition of MAO - Brain ([6]; 0.5 mg/kg ip): 45% | % Inhibition of MAO - Heart ([6]; 0.5 mg/kg ip): 91% | % Inhibition of MAO - Brain ([6]; 1.0 mg/kg ip): 68% | % Inhibition of MAO - Heart ([6]; 1.0 mg/kg ip): 97% | % Change (compared to control) - 5-HIAA ([7]; 1 mg/kg ip): -35% | % Change (compared to control) - 5-HT ([7]; 1 mg/kg ip): +41% | % Change (compared to control) - DOPAC ([7]; 1 mg/kg ip): -67% | % Change (compared to control) - Dopamine ([7]; 1 mg/kg ip): +15% | % Change (compared to control) - 5-HIAA ([7]; 10 mg/kg ip): -90% | % Change (compared to control) - 5-HT ([7]; 10 mg/kg ip): +90% | % Change (compared to control) - DOPAC ([7]; 10 mg/kg ip): -92% | % Change (compared to control) - Dopamine ([7]; 10 mg/kg ip): +32% | % Change (compared to control) - 5-HIAA ([7]; 100 mg/kg ip): -91% | % Change (compared to control) - 5-HT ([7]; 100 mg/kg ip): +96% | % Change (compared to control) - DOPAC ([7]; 100 mg/kg ip): -95% | % Change (compared to control) - Dopamine ([7]; 100 mg/kg ip): +19% | Potentiation of heart-rate response to p-tyramine ([4]; dose 0.1 (iv), p-tyramine i.d.): 9.1 fold | Potentiation of heart-rate response to p-tyramine ([4]; dose 0.1 (iv), p-tyramine i.v.): 8.4 fold

Cc1cc(C(=O)NNCc2ccccc2)no1 [isocarboxazid]
preferential inhibition of MAO-A or MAO-B (in words) [5]: not preferential in their action upon MAO

C=C(CN)c1cccc(OC)c1 [2-(3-methoxy)phenylallylamine, 2-(3'-Methoxy)phenylallylamine]
IC50 [1]: 10000 nM

C=C(CN)c1cccc(O)c1 [2-(3-hydroxy)phenylallylamine, 2-(3'-Hydroxy)phenylallylamine]
IC50 [1]: 250 nM

NC/C(=C/Cl)c1ccccc1 [(E)-2-phenyl-3-chloroallylamine, (E)-2-Phenyl-3-chloroallylamine]
IC50 [1]: 100000 nM

N[C@@H]1C[C@H]1c1ccccc1 (relative stereo) [tranyclcypromine]
preferential inhibition of MAO-A or MAO-B (in words) [5]: not preferential in their action upon MAO

Reference: US4454158A, “Allyl amine MAO inhibitors” (Merrell Toraude et Compagnie, priority 1981, dated 1984)
